Data reported in patent US10219513B2, “Safening 4-amino-3-chloro-6-(4-chloro-2-fluoro-3-methoxyphenyl)-5-fluoropyridine-2-carboxylic acid compositions in Brassica species and methods of use thereof” (Dow AgroSciences LLC, priority 2016, dated 2019).

Legend:
[1] = tested on: Brassica napus (Roundup Ready canola, RR-BRSNN); assay: Greenhouse postemergence application, visual injury after 20-22 d, RR-BRSNN
Protocol: (§1) Seeds of the desired test plant species were planted in Sun Gro MetroMix® 306 planting mixture, which typically has a pH of 6.0 to 6.8 and an organic matter content of about 30 percent, in plastic pots with a surface area of 103.2 square centimeters (cm^2). […] The plants were grown for 7-36 days (d) in a greenhouse with an approximate 14-hour (h) photoperiod which was maintained at about 23° C. during the day and 22° C. during the night. Nutrients and water were added on a regular basis and supplemental lighting was provided with overhead metal halide 1000-Watt lamps as necessary. The plants were employed for testing when they reached the second or third true leaf stage.
(§2) An aliquot of formulated benzyl 4-amino-3-chloro-6-(4-chloro-2-fluoro-3-methoxyphenyl)-5-fluoropyridine-2-carboxylate (florpyrauxifen-benzyl; 300 grams active ingredient per liter (g ai/L) suspension concentrate (SC)) was placed in a 25 mL glass vial and diluted in a volume of 1.25% (v/v) aqueous Agri-dex crop oil concentrated to obtain a stock solution. […] The concentrated stock solutions were diluted with an aqueous mixture of 1.25% v/v of aqueous Agri-dex crop oil concentrate to provide the appropriate application rates. Compound requirements are based upon a 12 milliliter (mL) application volume at a rate of 187 liters per hectare (L/ha). Stock solutions of the formulated materials were prepared following the same procedure. Spray solutions of the compound mixtures were prepared by adding the stock solutions to the appropriate amount of dilution solution to form a 12 mL spray solution. Formulated compounds were applied to the plant material with an overhead Mandel track sprayer equipped with 8002E nozzles calibrated to deliver 187 L/ha over an application area of 0.503 square meters (m^2) at a spray height of 18 inches (43 centimeters (cm)) above average plant canopy. Control plants were sprayed in the same manner with the solvent blank.
(§3) The treated plants and control plants were placed in a greenhouse as described above and watered by sub-irrigation to prevent wash-off of the test compounds. After 20-22 d, the condition of the test plants as compared with that of the control plants was determined visually and scored on a scale of 0 to 100 percent where 0 corresponds to no injury and 100 corresponds to complete kill. Colby's equation was used to determine the herbicidal effects expected from the mixtures.
(§4) Benzyl 4-amino-3-chloro-6-(4-chloro-2-fluoro-3-methoxyphenyl)-5-fluoropyridine-2-carboxylate (florpyrauxifen-benzyl, 300 g ai/L SC) was combined in two-, three-, and four-way mixtures with one or more of the following: clopyralid-olamine (as Lontrel™ 35A Herbicidal Concentrate), quinclorac (as Facet 75DF), isoxadifen-ethyl (100 g/L SC), cloquintocet-mexyl (120 g/L EC) or mefenpyr-diethyl (as mefenpyr-diethyl 15WP). The mixtures were applied to kale/Chinese kale (Brassica alboglabra, BRSAG), Juncea canola or brown mustard (Brassica juncea, BRSJU), rutabaga (Brassica napus var. napobrassica, BRSNA), all varieties of canola and oilseed rape (Brassica napus, BRSNN), Nexera™ canola (Brassica napus, BRSNN-NEX), winter oilseed rape (Brassica napus, BRSNW), Roundup Ready® canola (Brassica napus, RR-BRSNN), and turnip or Polish canola (Brassica rapa, BRSRR), and the phytotoxicity of the compositions was measured.
(§5) Colby's equation was used to determine the herbicidal effects expected from the mixtures evaluated in the described trials (Colby, S. R. Calculation of the synergistic and antagonistic response of herbicide combinations. Weeds 1967, 15, 20-22.).
(§6) The following equation was used to calculate the expected activity of mixtures containing two active ingredients, A and B: Expected=A+B−(A×B/100) • A=observed efficacy of active ingredient A at the same concentration as used in the mixture; • B=observed efficacy of active ingredient B at the same concentration as used in the mixture.

[2] = tested on: Brassica napus (all varieties of canola and oilseed rape, BRSNN); assay: Greenhouse postemergence application, visual injury after 20-22 d, BRSNN
Protocol: as §1, §2, §3, §4, §5, §6

[3] = tested on: Brassica napus var. napobrassica (rutabaga, BRSNA); assay: Greenhouse postemergence application, visual injury after 20-22 d, BRSNA
Protocol: as §1, §2, §3, §4, §5, §6

[4] = tested on: Brassica rapa (turnip or Polish canola, BRSRR); assay: Greenhouse postemergence application, visual injury after 20-22 d, BRSRR
Protocol: as §1, §2, §3, §4, §5, §6

[5] = tested on: Brassica juncea (Juncea canola or brown mustard, BRSJU); assay: Greenhouse postemergence application, visual injury after 20-22 d, BRSJU
Protocol: as §1, §2, §3, §4, §5, §6

[6] = isoxadifen-ethyl 5 g ai/ha alone
[7] = isoxadifen-ethyl 10 g ai/ha alone
[8] = isoxadifen-ethyl 20 g ai/ha alone
[9] = isoxadifen-ethyl 40 g ai/ha alone
[10] = postemergence application, greenhouse, application rate (g ai/ha) varies

CCOC(=O)C1=NOC(c2ccccc2)(c2ccccc2)C1 [Isoxadifen-ethyl, ethyl 4,5-dihydro-5,5-diphenyl-1,2-oxazole-3-carboxyalte]
0%: % Visual Injury Obs ([1]; RR-BRSNN, 5 g ai/ha) | % Visual Injury Obs ([1]; RR-BRSNN, 10 g ai/ha) | % Visual Injury Obs ([1]; RR-BRSNN, 20 g ai/ha) | % Visual Injury Obs ([1]; RR-BRSNN, 40 g ai/ha) | Obs % visual injury ([1]; RR-BRSNN, partner alone 5 g ai/ha) | Obs % visual injury ([1]; RR-BRSNN, partner alone 10 g ai/ha) | Obs % visual injury ([1]; RR-BRSNN, partner alone 20 g ai/ha) | Obs % visual injury ([1]; RR-BRSNN, partner alone 40 g ai/ha) | % Visual Injury Obs [1, 6] | % Visual Injury Obs [1, 7] | % Visual Injury Obs [1, 8] | % Visual Injury Obs [1, 9] | % Visual Injury RR-BRSNN Obs [1, 10] | % Visual Injury Obs ([2]; BRSNN, 5 g ai/ha) | % Visual Injury Obs ([2]; BRSNN, 10 g ai/ha) | % Visual Injury Obs ([2]; BRSNN, 20 g ai/ha) | % Visual Injury Obs ([2]; BRSNN, 40 g ai/ha) | Obs % visual injury ([2]; BRSNN, partner alone 5 g ai/ha) | Obs % visual injury ([2]; BRSNN, partner alone 10 g ai/ha) | Obs % visual injury ([2]; BRSNN, partner alone 20 g ai/ha) | Obs % visual injury ([2]; BRSNN, partner alone 40 g ai/ha) | % Visual Injury Obs [2, 6] | % Visual Injury Obs [2, 7] | % Visual Injury Obs [2, 8] | % Visual Injury Obs [2, 9] | % Visual Injury BRSNN Obs [2, 10] | % Visual Injury Obs ([3]; BRSNA, 5 g ai/ha) | % Visual Injury Obs ([3]; BRSNA, 10 g ai/ha) | % Visual Injury Obs ([3]; BRSNA, 20 g ai/ha) | % Visual Injury Obs ([3]; BRSNA, 40 g ai/ha) | Obs % visual injury ([3]; BRSNA, partner alone 5 g ai/ha) | Obs % visual injury ([3]; BRSNA, partner alone 10 g ai/ha) | Obs % visual injury ([3]; BRSNA, partner alone 20 g ai/ha) | Obs % visual injury ([3]; BRSNA, partner alone 40 g ai/ha) | % Visual Injury Obs [3, 6] | % Visual Injury Obs [3, 7] | % Visual Injury Obs [3, 8] | % Visual Injury Obs [3, 9] | % Visual Injury BRSNA Obs [3, 10] | % Visual Injury Obs ([4]; BRSRR, 5 g ai/ha) | % Visual Injury Obs ([4]; BRSRR, 10 g ai/ha) | % Visual Injury Obs ([4]; BRSRR, 20 g ai/ha) | % Visual Injury Obs ([4]; BRSRR, 40 g ai/ha) | Obs % visual injury ([4]; BRSRR, partner alone 5 g ai/ha) | Obs % visual injury ([4]; BRSRR, partner alone 10 g ai/ha) | Obs % visual injury ([4]; BRSRR, partner alone 20 g ai/ha) | Obs % visual injury ([4]; BRSRR, partner alone 40 g ai/ha) | % Visual Injury Obs [4, 6] | % Visual Injury Obs [4, 7] | % Visual Injury Obs [4, 8] | % Visual Injury Obs [4, 9] | % Visual Injury BRSRR Obs [4, 10] | % Visual Injury Obs ([5]; BRSJU, 5 g ai/ha) | % Visual Injury Obs ([5]; BRSJU, 10 g ai/ha) | % Visual Injury Obs ([5]; BRSJU, 20 g ai/ha) | % Visual Injury Obs ([5]; BRSJU, 40 g ai/ha) | Obs % visual injury ([5]; BRSJU, partner alone 5 g ai/ha) | Obs % visual injury ([5]; BRSJU, partner alone 10 g ai/ha) | Obs % visual injury ([5]; BRSJU, partner alone 20 g ai/ha) | Obs % visual injury ([5]; BRSJU, partner alone 40 g ai/ha) | % Visual Injury Obs [5, 6] | % Visual Injury Obs [5, 7] | % Visual Injury Obs [5, 8] | % Visual Injury Obs [5, 9] | % Visual Injury BRSJU Obs [5, 10]

O=C(O)c1c(Cl)ccc2cc(Cl)cnc12 [Quinclorac, 3,7-dichloro-8-quinolinecarboxylic acid]
0%: % Visual Injury Obs ([1]; RR-BRSNN, 50 g ai/ha) | % Visual Injury Obs ([1]; RR-BRSNN, 100 g ai/ha) | % Visual Injury Obs ([1]; RR-BRSNN, 200 g ai/ha) | Obs % visual injury ([1]; RR-BRSNN, partner alone 50 g ai/ha) | Obs % visual injury ([1]; RR-BRSNN, partner alone 100 g ai/ha) | Obs % visual injury ([1]; RR-BRSNN, partner alone 200 g ai/ha) | % Visual Injury RR-BRSNN Obs [1, 10] | % Visual Injury RR-BRSNN Obs ([1]; quinclorac 50 g ai/ha alone) | % Visual Injury RR-BRSNN Obs ([1]; quinclorac 100 g ai/ha alone) | % Visual Injury RR-BRSNN Obs ([1]; quinclorac 200 g ai/ha alone) | % Visual Injury Obs ([2]; BRSNN, 50 g ai/ha) | % Visual Injury Obs ([2]; BRSNN, 100 g ai/ha) | % Visual Injury Obs ([2]; BRSNN, 200 g ai/ha) | Obs % visual injury ([2]; BRSNN, partner alone 50 g ai/ha) | Obs % visual injury ([2]; BRSNN, partner alone 100 g ai/ha) | Obs % visual injury ([2]; BRSNN, partner alone 200 g ai/ha) | % Visual Injury BRSNN Obs [2, 10] | % Visual Injury BRSNN Obs ([2]; quinclorac 50 g ai/ha alone) | % Visual Injury BRSNN Obs ([2]; quinclorac 100 g ai/ha alone) | % Visual Injury BRSNN Obs ([2]; quinclorac 200 g ai/ha alone) | % Visual Injury Obs ([3]; BRSNA, 50 g ai/ha) | % Visual Injury Obs ([3]; BRSNA, 100 g ai/ha) | % Visual Injury Obs ([3]; BRSNA, 200 g ai/ha) | Obs % visual injury ([3]; BRSNA, partner alone 50 g ai/ha) | Obs % visual injury ([3]; BRSNA, partner alone 100 g ai/ha) | Obs % visual injury ([3]; BRSNA, partner alone 200 g ai/ha) | % Visual Injury BRSNA Obs [3, 10] | % Visual Injury BRSNA Obs ([3]; quinclorac 50 g ai/ha alone) | % Visual Injury BRSNA Obs ([3]; quinclorac 100 g ai/ha alone) | % Visual Injury BRSNA Obs ([3]; quinclorac 200 g ai/ha alone) | % Visual Injury Obs ([4]; BRSRR, 50 g ai/ha) | % Visual Injury Obs ([4]; BRSRR, 100 g ai/ha) | % Visual Injury Obs ([4]; BRSRR, 200 g ai/ha) | Obs % visual injury ([4]; BRSRR, partner alone 50 g ai/ha) | Obs % visual injury ([4]; BRSRR, partner alone 100 g ai/ha) | Obs % visual injury ([4]; BRSRR, partner alone 200 g ai/ha) | % Visual Injury BRSRR Obs [4, 10] | % Visual Injury BRSRR Obs ([4]; quinclorac 50 g ai/ha alone) | % Visual Injury BRSRR Obs ([4]; quinclorac 100 g ai/ha alone) | % Visual Injury BRSRR Obs ([4]; quinclorac 200 g ai/ha alone) | % Visual Injury Obs ([5]; BRSJU, 50 g ai/ha) | % Visual Injury Obs ([5]; BRSJU, 100 g ai/ha) | % Visual Injury Obs ([5]; BRSJU, 200 g ai/ha) | Obs % visual injury ([5]; BRSJU, partner alone 50 g ai/ha) | Obs % visual injury ([5]; BRSJU, partner alone 100 g ai/ha) | Obs % visual injury ([5]; BRSJU, partner alone 200 g ai/ha) | % Visual Injury BRSJU Obs [5, 10] | % Visual Injury BRSJU Obs ([5]; quinclorac 50 g ai/ha alone) | % Visual Injury BRSJU Obs ([5]; quinclorac 100 g ai/ha alone) | % Visual Injury BRSJU Obs ([5]; quinclorac 200 g ai/ha alone)
